Measured values reported in US20240270809A1, “ORAL GLP RECEPTOR AGONISTS” (priority 2020, published 2024).
Positions of bridges follow the written chain, without caps; N, C: chain ends. Non-standard residues stand in square brackets, D forms with d. Residues, ends and D or L forms follow the SMILES beside them. *: point of attachment. Malonyl(2,2-Me2,histaminyl) = CC(C)(C(=O)NCCc1cnc[nH]1)C(=O)*; Ala(1H-tetrazol-5-yl) = N[C@@H](Cc1nnn[nH]1)C(=O)O; αMeL = CC(C)C[C@](C)(N)C(=O)O; Nle = CCCC[C@H](N)C(=O)O; Aib = CC(C)(N)C(=O)O

Assays:
human GLP2 receptor = target: T1, human GLP2 receptor (Homo sapiens, UniProt O95838); assay: cAMP accumulation assay, functional agonism of human GLP2 receptor; type: cell-based; settings: HEK cells infected with human GLP2 receptor BacMam virus, HTRF cAMP; for Emax: HEK293, read-out: Human GLP-2R agonist cAMP Emax; for EC50: read-out: Human GLP-2R agonist cAMP pEC50 (converted)
T1 construct: expressed in transfected cells; host or cells: HEK cells, BacMam virus transduction
T1 sequence (O95838 1-553): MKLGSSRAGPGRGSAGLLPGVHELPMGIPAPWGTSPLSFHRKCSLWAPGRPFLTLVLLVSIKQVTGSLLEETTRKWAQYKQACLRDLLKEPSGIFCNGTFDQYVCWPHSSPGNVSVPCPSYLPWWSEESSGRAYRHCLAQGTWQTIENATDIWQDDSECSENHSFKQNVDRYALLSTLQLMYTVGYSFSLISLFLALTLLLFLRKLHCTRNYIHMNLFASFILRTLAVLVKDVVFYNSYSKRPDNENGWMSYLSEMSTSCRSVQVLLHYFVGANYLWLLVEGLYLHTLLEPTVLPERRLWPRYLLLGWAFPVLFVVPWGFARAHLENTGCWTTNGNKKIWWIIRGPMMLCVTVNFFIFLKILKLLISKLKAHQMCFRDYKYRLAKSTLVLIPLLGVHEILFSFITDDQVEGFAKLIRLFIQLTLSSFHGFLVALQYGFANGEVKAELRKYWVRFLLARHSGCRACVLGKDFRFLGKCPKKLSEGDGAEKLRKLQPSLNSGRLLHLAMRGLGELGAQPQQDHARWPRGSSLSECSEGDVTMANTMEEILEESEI
How it was run: (§1)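 cAMP read by HTRF detection reagents in lysis buffer following 45 min agonist exposure at 37 °C. Cells: frozen HEK transduced for 24 h with GLP1 or GLP2 receptor BacMam, suspended in HBSS plus 0.5 mM IBMX.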

human GLP1 receptor = target: T2, human GLP1 receptor (Homo sapiens, UniProt P43220); assay: cAMP accumulation assay, functional agonism of human GLP1 receptor; type: cell-based; settings: HEK cells infected with human GLP1 receptor BacMam virus, HTRF cAMP; for Emax: HEK293, read-out: Human GLP-1R agonist cAMP Emax; for EC50: read-out: Human GLP-1R agonist cAMP pEC50 (converted)
T2 construct: expressed in transfected cells; host or cells: HEK cells, BacMam virus transduction
How it was run: as §1

T2 sequence (P43220 24-463): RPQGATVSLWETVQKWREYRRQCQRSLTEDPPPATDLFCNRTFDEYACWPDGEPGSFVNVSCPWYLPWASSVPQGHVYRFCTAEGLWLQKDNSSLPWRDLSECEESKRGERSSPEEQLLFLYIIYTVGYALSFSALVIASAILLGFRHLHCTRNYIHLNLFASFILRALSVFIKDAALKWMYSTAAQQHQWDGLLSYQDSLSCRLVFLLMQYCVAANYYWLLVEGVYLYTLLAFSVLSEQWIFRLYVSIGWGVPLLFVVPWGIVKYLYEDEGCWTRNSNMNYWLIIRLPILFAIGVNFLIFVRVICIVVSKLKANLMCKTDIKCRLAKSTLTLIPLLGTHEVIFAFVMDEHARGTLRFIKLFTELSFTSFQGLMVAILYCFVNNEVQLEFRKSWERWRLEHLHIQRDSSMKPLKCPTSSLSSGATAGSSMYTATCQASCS

Structure (SMILES): CCCC[C@H](NC(=O)[C@H](CCC(=O)O)NC(=O)[C@H](CC(=O)O)NC(=O)[C@H](CO)NC(=O)[C@H](Cc1ccccc1)NC(=O)[C@H](CO)NC(=O)CNC(=O)[C@H](CC(=O)O)NC(=O)C(C)(C)NC(=O)[C@@H](N)Cc1c[nH]cn1)C(=O)N[C@H](Cc1ccccc1)C(=O)N[C@H](C(=O)N[C@H](C(=O)N[C@@H](CC(C)C)C(=O)N[C@@H](CC(=O)O)C(=O)N[C@@H](CC(C)C)C(=O)N[C@@H](CCCCN)C(=O)N[C@@H](C)C(=O)N[C@@H](C)C(=O)N[C@@H](CCCCN)C(=O)N[C@@H](CC(=O)O)C(=O)N[C@@H](Cc1ccccc1)C(=O)N[C@H](C(=O)N[C@@H](CC(N)=O)C(=O)N[C@@H](Cc1c[nH]c2ccccc12)C(=O)N[C@@H](CC(C)C)C(=O)N[C@H](C(=O)N[C@@H](CCC(N)=O)C(=O)N[C@H](C(=O)N[C@H]1CCCCNC(=O)CC[C@@H](C(N)=O)NC(=O)[C@H]([C@@H](C)O)NC(=O)[C@H]([C@@H](C)CC)NC1=O)[C@@H](C)O)[C@@H](C)CC)[C@@H](C)CC)[C@@H](C)CC)[C@@H](C)O [Example 101] (H-H[Aib]DGSFSDE[Nle][dF]TILDLKAAKDFINWLIQTKITE-NH2; lactam 30-33 (inferred); C-terminus assumed)
- Emax (human GLP2 receptor): 101%
- EC50 (human GLP2 receptor): 0.0316 nM
- Emax (human GLP1 receptor): 96.7%
- EC50 (human GLP1 receptor): 12.6 nM

Structure (SMILES): CCCC[C@H](NC(=O)[C@H](CCC(=O)O)NC(=O)[C@@H]1CC(=O)NCCCC[C@H](NC(=O)[C@H](CCC(N)=O)NC(=O)C(C)(C)C(=O)NCCc2c[nH]cn2)C(=O)N[C@@H](CO)C(=O)N[C@@H](Cc2ccccc2)C(=O)N[C@@H](CO)C(=O)N1)C(=O)N[C@H](Cc1ccccc1)C(=O)N[C@H](C(=O)N[C@@](C)(CC(C)C)C(=O)N[C@@H](CC(C)C)C(=O)N[C@@H](CC(=O)O)C(=O)N[C@H]1CCC(=O)NCCCC[C@@H](C(=O)N[C@@H](CC(=O)O)C(=O)N[C@@H](Cc2ccccc2)C(=O)N[C@H](C(=O)N[C@H]2CCC(=O)NCCCC[C@@H](C(=O)N[C@H]3CCC(=O)NCCCC[C@@H](C(N)=O)NC(=O)[C@H]([C@@H](C)O)NC(=O)[C@H]([C@@H](C)CC)NC(=O)[C@H](CCCCN)NC3=O)NC(=O)[C@H]([C@@H](C)CC)NC(=O)[C@H](CC(C)C)NC(=O)[C@H](Cc3c[nH]c4ccccc34)NC2=O)[C@@H](C)CC)NC(=O)[C@H](C)NC(=O)[C@H](C)NC(=O)[C@H](CCCCN)NC1=O)[C@@H](C)O [Example 69] ({Malonyl(2,2-Me2,histaminyl)}-QKSFSDE[Nle][dF]T[αMeL]LDEKAAKDFIEWLIKEKITK-NH2; lactam 2-6, 14-18, 22-26, 27-31 (inferred); C-terminus assumed)
- Emax (human GLP2 receptor): 95%
- EC50 (human GLP2 receptor): 0.501 nM
- Emax (human GLP1 receptor): 83.7%
- EC50 (human GLP1 receptor): 6.31 nM

Structure (SMILES): CCCC[C@@H]1NC(=O)[C@H](CCC(=O)O)NC(=O)[C@@H](NC(=O)[C@H](CO)NC(=O)[C@H](Cc2ccccc2)NC(=O)[C@H](CO)NC(=O)CNC(=O)[C@H](Cc2nn[nH]n2)NC(=O)C(C)(C)C(=O)NCCc2c[nH]cn2)CCCCNC(=O)C[C@@H](C(=O)N[C@H](C(=O)N[C@@H](CC(C)C)C(=O)N[C@@H](CC(=O)O)C(=O)N[C@H]2CCC(=O)NCCCC[C@@H](C(=O)N[C@@H](CC(=O)O)C(=O)N[C@@H](Cc3ccccc3)C(=O)N[C@H](C(=O)N[C@@H](CC(N)=O)C(=O)N[C@@H](Cc3c[nH]c4ccccc34)C(=O)N[C@@H](CC(C)C)C(=O)N[C@H](C(=O)N[C@@H](CCC(N)=O)C(=O)N[C@H](C(=O)N[C@H]3CCC(=O)NCCCC[C@@H](C(N)=O)NC(=O)[C@H]([C@@H](C)O)NC(=O)[C@H]([C@@H](C)CC)NC3=O)[C@@H](C)O)[C@@H](C)CC)[C@@H](C)CC)NC(=O)C(C)(C)NC(=O)C(C)(C)NC(=O)[C@H](CCCCN)NC2=O)[C@@H](C)CC)NC(=O)[C@@H](Cc2ccccc2)NC1=O [Example 16] ({Malonyl(2,2-Me2,histaminyl)}-[Ala(1H-tetrazol-5-yl)]GSFSKE[Nle][dF]DILDEK[Aib][Aib]KDFINWLIQTEITK-NH2; lactam 6-10, 14-18, 28-31; C-terminus assumed)
- Emax (human GLP2 receptor): 104%
- EC50 (human GLP2 receptor): 0.251 nM
- Emax (human GLP1 receptor): 94.1%
- EC50 (human GLP1 receptor): 0.631 nM

Structure (SMILES): CCCC[C@H](NC(=O)[C@H](CCC(=O)O)NC(=O)[C@H](CC(=O)O)NC(=O)[C@H](CO)NC(=O)[C@H](Cc1ccccc1)NC(=O)[C@H](CO)NC(=O)CNC(=O)[C@H](CC(=O)O)NC(=O)C(C)(C)NC(=O)[C@@H](N)Cc1c[nH]cn1)C(=O)N[C@H](Cc1ccccc1)C(=O)N[C@H](C(=O)N[C@H](C(=O)N[C@@H](CC(C)C)C(=O)N[C@@H](CC(=O)O)C(=O)N[C@@H](CC(C)C)C(=O)N[C@@H](CCCCN)C(=O)N[C@@H](C)C(=O)N[C@@H](C)C(=O)N[C@@H](CCCCN)C(=O)N[C@@H](CC(=O)O)C(=O)N[C@@H](Cc1ccccc1)C(=O)N[C@H](C(=O)N[C@H]1CCC(=O)NCCCC[C@@H](C(=O)N[C@H](C(=O)N[C@@H](CCCCN)C(=O)N[C@H](C(=O)N[C@H](C(=O)N[C@@H](CC(=O)O)C(N)=O)[C@@H](C)O)[C@@H](C)CC)[C@@H](C)O)NC(=O)[C@H]([C@@H](C)CC)NC(=O)[C@H](CC(C)C)NC(=O)[C@H](Cc2c[nH]c3ccccc23)NC1=O)[C@@H](C)CC)[C@@H](C)CC)[C@@H](C)O [Example 99] (H-H[Aib]DGSFSDE[Nle][dF]TILDLKAAKDFIEWLIKTKITD-NH2; lactam 24-28 (inferred); C-terminus assumed)
- Emax (human GLP2 receptor): 101%
- EC50 (human GLP2 receptor): 0.00501 nM
- Emax (human GLP1 receptor): 97.1%
- EC50 (human GLP1 receptor): 2.51 nM

Structure (SMILES): CCCC[C@H](NC(=O)[C@H](CCC(=O)O)NC(=O)[C@@H]1CC(=O)NCCCC[C@H](NC(=O)[C@H](CC(=O)O)NC(=O)C(C)(C)NC(=O)[C@@H](N)Cc2c[nH]cn2)C(=O)N[C@@H](CO)C(=O)N[C@@H](Cc2ccccc2)C(=O)N[C@@H](CO)C(=O)N1)C(=O)N[C@H](Cc1ccccc1)C(=O)N[C@H](C(=O)N[C@H](C(=O)N[C@@H](CC(C)C)C(=O)N[C@@H](CC(=O)O)C(=O)N[C@@H](CC(C)C)C(=O)N[C@@H](CCCCN)C(=O)N[C@@H](C)C(=O)N[C@@H](C)C(=O)N[C@@H](CCCCN)C(=O)N[C@@H](CC(=O)O)C(=O)N[C@@H](Cc1ccccc1)C(=O)N[C@H](C(=O)N[C@@H](CC(N)=O)C(=O)N[C@@H](Cc1c[nH]c2ccccc12)C(=O)N[C@@H](CC(C)C)C(=O)N[C@H](C(=O)N[C@@H](CCC(N)=O)C(=O)N[C@H](C(=O)N[C@@H](CCCCN)C(=O)N[C@H](C(=O)N[C@H](C(=O)N[C@@H](CC(=O)O)C(N)=O)[C@@H](C)O)[C@@H](C)CC)[C@@H](C)O)[C@@H](C)CC)[C@@H](C)CC)[C@@H](C)CC)[C@@H](C)O [Example 84] (H-H[Aib]DKSFSDE[Nle][dF]TILDLKAAKDFINWLIQTKITD-NH2; lactam 4-8; C-terminus assumed)
- Emax (human GLP2 receptor): 103%
- EC50 (human GLP2 receptor): 0.0501 nM
- Emax (human GLP1 receptor): 87.3%
- EC50 (human GLP1 receptor): 10 nM

Structure (SMILES): CCCC[C@H](NC(=O)[C@H](CCC(=O)O)NC(=O)[C@H](CC(=O)O)NC(=O)[C@H](CO)NC(=O)[C@H](Cc1ccccc1)NC(=O)[C@H](CO)NC(=O)CNC(=O)[C@H](CC(=O)O)NC(=O)C(C)(C)NC(=O)[C@@H](N)Cc1c[nH]cn1)C(=O)N[C@H](Cc1ccccc1)C(=O)N[C@H](C(=O)N[C@H](C(=O)N[C@@H](CC(C)C)C(=O)N[C@@H](CC(=O)O)C(=O)N[C@@H](CC(C)C)C(=O)N[C@H]1CCC(=O)NCCCC[C@@H](C(=O)N[C@@H](CC(=O)O)C(=O)N[C@@H](Cc2ccccc2)C(=O)N[C@H](C(=O)N[C@@H](CC(N)=O)C(=O)N[C@@H](Cc2c[nH]c3ccccc23)C(=O)N[C@@H](CC(C)C)C(=O)N[C@H](C(=O)N[C@@H](CCC(N)=O)C(=O)N[C@H](C(=O)N[C@@H](CCCCN)C(=O)N[C@H](C(=O)N[C@H](C(=O)N[C@@H](CC(=O)O)C(N)=O)[C@@H](C)O)[C@@H](C)CC)[C@@H](C)O)[C@@H](C)CC)[C@@H](C)CC)NC(=O)[C@H](C)NC(=O)[C@H](C)NC1=O)[C@@H](C)CC)[C@@H](C)O [Example 98] (H-H[Aib]DGSFSDE[Nle][dF]TILDLEAAKDFINWLIQTKITD-NH2; lactam 17-20; C-terminus assumed)
- Emax (human GLP2 receptor): 101%
- EC50 (human GLP2 receptor): 0.00631 nM
- Emax (human GLP1 receptor): 96%
- EC50 (human GLP1 receptor): 20 nM
